In data set [1] the test system is human growth hormone (532) promoter. In words: High-throughput luciferase reporter assay, human Growth Hormone promoter (Screen III). It is filed as cell-based. The settings on record: 532 cells, 6 hours; for FOLD INDUCTION RELATIVE TO SOLVENT CONTROL, hGH: Screen III activators; for FOLD INHIBITION RELATIVE TO SOLVENT CONTROL, hGH: Screen III inhibitors. A general note: Reporter assays use an easily measured gene product as a stand-in for the process of interest.

A further data set has as its system MMTV (M10) promoter. In words: High-throughput luciferase reporter assay, MMTV promoter (Screen III). It is filed as cell-based, mouse. The settings on record: M10 cells, 6 hours; for FOLD INDUCTION RELATIVE TO SOLVENT CONTROL, MMTV: Screen III activators; for FOLD INHIBITION RELATIVE TO SOLVENT CONTROL, MMTV: Screen III inhibitors. The method, then:
pMluci and pSV2Neo, an antibiotic resistance plasmid (112), were co-transfected into NIH/3T3 mouse fibroblast cells using the calcium phosphate precipitation method (103) with a commercially available kit (Pharmacia, Piscataway N.J.). Two days later, cells were transferred to media containing 0.4 mg/ml G418 and were grown for an additional 10-14 days. G418-resistant clones were isolated by standard methods. Once sufficient cell numbers were obtained, clones were analyzed based on several criteria: constitutive luciferase production, induction of luciferase expression by dexamethasone (1 μm, Sigma, St. Louis, Mo.), satisfactory attachment to microtiter plates used in the high-throughput screen and acceptable standard deviation in multiple luciferase expression assays (see below for assay protocol). This analysis was carried out using the luciferase assay conditions described above. Of the clones which satisfied the above criteria for the high throuphput screen, one clone, M10, was selected for use.

The test system of data set [2] is human G-CSF (G21) promoter. In words: High-throughput luciferase reporter assay, G-CSF promoter (Screen III). The settings on record: G21 cells, 6 hours; for FOLD INDUCTION RELATIVE TO SOLVENT CONTROL, GCSF: Screen III activators; for FOLD INHIBITION RELATIVE TO SOLVENT CONTROL, GCSF: Screen III inhibitors.

14 molecules from patent US6203976A, “Methods of preparing compositions comprising chemicals capable of transcriptional modulation” (OSI Pharmaceuticals, Inc., priority 1994, dated 2001) can be followed below.

As to `Nc1ccc(SSc2ccc(N)cc2)cc1` [compound 1483], the “FOLD INDUCTION RELATIVE TO SOLVENT CONTROL, hGH” value in data set [1] was found to be 0.38 fold. Moreover, the “FOLD INDUCTION RELATIVE TO SOLVENT CONTROL, MMTV” value with MMTV (M10) promoter is 1.09 fold. Moreover, the “FOLD INDUCTION RELATIVE TO SOLVENT CONTROL, GCSF” value in data set [2] is 4.64 fold.

As to `Nc1nc(-c2ccccc2)cs1` [compound 1499], the “FOLD INDUCTION RELATIVE TO SOLVENT CONTROL, hGH” value in data set [1] was determined as 5.55 fold. Further, in the data set with MMTV (M10) promoter, the “FOLD INDUCTION RELATIVE TO SOLVENT CONTROL, MMTV” value worked out at 0.61 fold. Further, in data set [2], the “FOLD INDUCTION RELATIVE TO SOLVENT CONTROL, GCSF” value was 0.24 fold.

Regarding `Nc1nc2nc[nH]c2c(=S)[nH]1` [compound 1521], the “FOLD INDUCTION RELATIVE TO SOLVENT CONTROL, hGH” value in data set [1] was 0.73 fold. For the same molecule, the “FOLD INDUCTION RELATIVE TO SOLVENT CONTROL, MMTV” value with MMTV (M10) promoter was 0.92 fold. Moreover, the “FOLD INDUCTION RELATIVE TO SOLVENT CONTROL, GCSF” value in data set [2] was found to be 3.59 fold.

For `Nc1nccs1` [compound 1550], the “FOLD INDUCTION RELATIVE TO SOLVENT CONTROL, hGH” value in data set [1] is listed as 5.44 fold. Also, in the data set on MMTV (M10) promoter, the “FOLD INDUCTION RELATIVE TO SOLVENT CONTROL, MMTV” value is listed as 0.87 fold. In data set [2], the “FOLD INDUCTION RELATIVE TO SOLVENT CONTROL, GCSF” value turned out to be 0.04 fold.

Turning to `NC1=NCCS1` [compound 1552], the “FOLD INDUCTION RELATIVE TO SOLVENT CONTROL, hGH” value in data set [1] was 7.26 fold. The “FOLD INDUCTION RELATIVE TO SOLVENT CONTROL, MMTV” value in the data set with MMTV (M10) promoter turned out to be 0.52 fold. Further, the “FOLD INDUCTION RELATIVE TO SOLVENT CONTROL, GCSF” value in data set [2] is recorded as 1.23 fold.

Consider `Nc1c(Cl)c(Cl)nc(C(=O)O)c1Cl` [compound 1561], for which, in data set [1], the “FOLD INDUCTION RELATIVE TO SOLVENT CONTROL, hGH” value was determined as 8.05 fold. In addition, the “FOLD INDUCTION RELATIVE TO SOLVENT CONTROL, MMTV” value with MMTV (M10) promoter was 0.48 fold. For the same molecule, in data set [2], the “FOLD INDUCTION RELATIVE TO SOLVENT CONTROL, GCSF” value is reported as 0.23 fold.

Regarding `Brc1ccc2c3c(cccc13)CC2` [compound 1573], the “FOLD INDUCTION RELATIVE TO SOLVENT CONTROL, hGH” value in data set [1] was found to be 0.34 fold. For the same molecule, the “FOLD INDUCTION RELATIVE TO SOLVENT CONTROL, MMTV” value in the data set with MMTV (M10) promoter was 4.30 fold. For the same molecule, the “FOLD INDUCTION RELATIVE TO SOLVENT CONTROL, GCSF” value in data set [2] came out at 1.49 fold.

In the case of `Nc1ncnc2c1nc(Br)n2[C@@H]1O[C@H](CO)[C@@H](O)[C@H]1O` [compound 1583], in data set [1], the “FOLD INDUCTION RELATIVE TO SOLVENT CONTROL, hGH” value came out at 0.12 fold. The “FOLD INDUCTION RELATIVE TO SOLVENT CONTROL, MMTV” value in the data set with MMTV (M10) promoter amounted to 0.88 fold. Also, the “FOLD INDUCTION RELATIVE TO SOLVENT CONTROL, GCSF” value in data set [2] is 5.82 fold.

Turning to `Cc1ccc(P(CCP(c2ccc(C)cc2)c2ccc(C)cc2)c2ccc(C)cc2)cc1` [compound 1591], in data set [1], the “FOLD INHIBITION RELATIVE TO SOLVENT CONTROL, hGH” value worked out at 5.55 fold. Also, the “FOLD INHIBITION RELATIVE TO SOLVENT CONTROL, MMTV” value in the data set on MMTV (M10) promoter was 0.96 fold. The “FOLD INHIBITION RELATIVE TO SOLVENT CONTROL, GCSF” value in data set [2] amounted to 0.56 fold.

`CC1(C)[C@@H](C(=O)OCC(F)(F)C(F)(F)C(F)(F)C(F)(F)C(F)(F)C(F)F)CC[C@@]1(C)C(=O)OCC(F)(F)C(F)(F)C(F)(F)C(F)(F)C(F)(F)C(F)F` [compound 1592]: in data set [1], the “FOLD INDUCTION RELATIVE TO SOLVENT CONTROL, hGH” value was 0.74 fold. Besides, the “FOLD INDUCTION RELATIVE TO SOLVENT CONTROL, MMTV” value with MMTV (M10) promoter turned out to be 1.34 fold. The “FOLD INDUCTION RELATIVE TO SOLVENT CONTROL, GCSF” value in data set [2] stood at 3.20 fold.

On to `O=C(Nc1cccc(C2=NCCN2)c1)Nc1cccc(C2=NCCN2)c1` [compound 1598], for which the “FOLD INDUCTION RELATIVE TO SOLVENT CONTROL, hGH” value in data set [1] amounted to 5.32 fold. The “FOLD INDUCTION RELATIVE TO SOLVENT CONTROL, MMTV” value with MMTV (M10) promoter is on record as 1.27 fold. Moreover, the “FOLD INDUCTION RELATIVE TO SOLVENT CONTROL, GCSF” value in data set [2] was 0.72 fold.

Regarding `O=S(=O)(O)c1ccc(-c2nnc(-c3ccnc(-c4nnc(-c5ccc(S(=O)(=O)O)cc5)c(-c5ccc(S(=O)(=O)O)cc5)n4)c3)nc2-c2ccc(S(=O)(=O)O)cc2)cc1` [compound 1604], the “FOLD INHIBITION RELATIVE TO SOLVENT CONTROL, hGH” value in data set [1] is on record as 5.00 fold. Further, the “FOLD INHIBITION RELATIVE TO SOLVENT CONTROL, MMTV” value in the data set on MMTV (M10) promoter is given as 0.97 fold. In addition, the “FOLD INHIBITION RELATIVE TO SOLVENT CONTROL, GCSF” value in data set [2] stood at 0.77 fold.

On to `C(=Cc1ccccn1)c1ccccn1` [compound 1640], for which the “FOLD INHIBITION RELATIVE TO SOLVENT CONTROL, hGH” value in data set [1] is reported as 5.00 fold. Moreover, the “FOLD INHIBITION RELATIVE TO SOLVENT CONTROL, MMTV” value in the data set on MMTV (M10) promoter was 0.59 fold. In addition, in data set [2], the “FOLD INHIBITION RELATIVE TO SOLVENT CONTROL, GCSF” value came to 0.79 fold.

With `c1ccc(-c2nccnc2-c2ccccn2)nc1` [compound 1641], in data set [1], the “FOLD INHIBITION RELATIVE TO SOLVENT CONTROL, hGH” value worked out at 5.55 fold. Also, in the data set with MMTV (M10) promoter, the “FOLD INHIBITION RELATIVE TO SOLVENT CONTROL, MMTV” value is reported as 0.60 fold. Further, in data set [2], the “FOLD INHIBITION RELATIVE TO SOLVENT CONTROL, GCSF” value is listed as 0.83 fold.
